Literature values in patent US5585357A, “Heteroaryloxymethyl ketones as interleukin-1βconverting enzyme inhibitors” (Sanofi Winthrop Inc., priority 1996, dated 1996).

Tests used:
[1] = rat, oral administration
[2] = animal model of ulcerative colitis
[3] = PG-APS model of arthritis in rats
[4] = small open-label human trial, subcutaneous
[5] = system: chronic myelogenous leukemia cells; conditions: cells removed from leukemia patients

Compound	inflammation and pyrexia [1]	tissue necrosis and number of inflammatory cells in the colon [2]	joint swelling [3]	efficacy in Rheumatoid Arthritis [4]	colony growth [5]
CCOC(=O)C[C@H](NC(=O)[C@H](C)NC(=O)[C@@H](NC(=O)OCc1ccccc1)C(C)C)C(=O)COC(=O)c1c(Cl)cccc1Cl [SDZ 224-015]	Reduction of inflammation and pyrexia	–	–	–	–
IL-1ra: naturally occurring IL-1β receptor antagonist	–	reduced tissue necrosis and the number of inflammatory cells in the colon	supresses joint swelling	shows efficacy	inhibit colony growth
